This is an account of results in EP3325465B1, “PESTICIDALLY ACTIVE PYRAZOLE DERIVATIVES” (Syngenta Participations AG, priority 2015, dated 2017).

SMILES strings stand for the structures. Read-outs that look alike come from different tables or passages of the source.

Assay type in all cases: in vivo
In test [1] the test system is Thrips tabaci (Onion thrips). Description: Biological comparison b): insecticidal activity against Thrips tabaci, sunflower leaf discs. The settings on record: foliar, 144 h. As to the method: b) Insecticidal activity against Thrips tabaci (Onion thrips): Sunflower leaf discs were placed on agar in 24-well microtiter plates and sprayed with aqueous test solutions prepared from 10'000 ppm DMSO stock solutions. After drying the leaf discs were infested with a thrips population of mixed ages. The samples were assessed for mortality 6 days after infestation.

The subject of test [2] is Myzus persicae (Green peach aphid). The test is described as follows: Myzus persicae sunflower leaf disc spray test. The following applies: foliar, 144 h, read-out: mortality of Myzus persicae. From the text:
(§1) The pesticidal/insecticidal properties of the compounds according to embodiments 1 or 2 can be illustrated via the following tests: Spodoptera littoralis (Egyptian cotton leaf worm) • Cotton leaf discs were placed onto agar in 24-well microtiter plates and sprayed with aqueous test solutions prepared from 10'000 ppm DMSO stock solutions. After drying the leaf discs were infested with five L1 larvae. […] Plutella xylostella (Diamond back moth): 24-well microtiter plates with artificial diet were treated with aqueous test solutions prepared from 10'000 ppm DMSO stock solutions by pipetting. After drying, the plates were infested with L2 larvae (10 to 15 per well). The samples were assessed for mortality and growth inhibition in comparison to untreated samples 5 days after infestation. […] Diabrotica balteata, (Corn root worm) • Maize sprouts placed onto an agar layer in 24-well microtiter plates were treated with aqueous test solutions prepared from 10'000 ppm DMSO stock solutions by spraying. After drying, the plates were infested with L2 larvae (6 to 10 per well). […] Thrips tabaci (Onion thrips): Sunflower leaf discs were placed on agar in 24-well microtiter plates and sprayed with aqueous test solutions prepared from 10'000 ppm DMSO stock solutions. After drying the leaf discs were infested with a thrips population of mixed ages. The samples were assessed for mortality 6 days after infestation. […] Tetranychus urticae (Two-spotted spider mite): Bean leaf discs on agar in 24-well microtiter plates were sprayed with aqueous test solutions prepared from 10'000 ppm DMSO stock solutions. After drying the leaf discs were infested with a mite population of mixed ages. The samples were assessed for mortality on mixed population (mobile stages) 8 days after infestation. […] Euschistus heros (Neotropical Brown Stink Bug): • Two weeks old soybean plants were sprayed in a turn table spray chamber with the diluted spray solutions. After drying 2 soybean seeds were added and plants were infested with 10 N2 nymphs of the neotropical brown stink bug Euschistus heros in plastic test boxes. The samples were assessed for mortality in comparison to untreated samples 5 days after infestation. • The following compounds gave at least 80% mortality of Euschistus heros at an application rate of 12.5 ppm: Compounds 3 , 4 , 8 , 39 , 43 , 44 , 46 , 75 , 76 , 77 , 78 , 79 , 80 , 81 , 82 , 88 , 90 , 93 and 95 . Myzus persicae (Green peach aphid): Sunflower leaf discs were placed on agar in a 24-well microtiter plate and sprayed with test solutions at an application rate of 200 ppm. After drying, the leaf discs were infested with an aphid population of mixed ages. After an incubation period of 6 DAT, samples were checked for mortality. The following compounds gave at least 50% mortality of Myzus persicae: Compounds 3 , 4 , 8 , 43 , 44 , 75 , 76 , 77 , 80 , 81 , 90 and 92 . Myzus persicae (Green peach aphid): • Test compounds were applied by pipette into 24 well plates and mixed with Sucrose solution. Application rate: 12.5ppm. The plates were closed with a stretched parafilm. A plastic stencil with 24 holes is placed onto the plate and infested pea seedlings were placed directly on the Parafilm. The infested plate is closed with a gel blotting paper and another plastic stencil and then turned upside down. […]

Test [3] has as its system Diabrotica balteata, (Corn root worm). Description: Diabrotica balteata maize sprout spray test, L2 larvae. The following applies: 96 h. In a few lines: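 Test solutions in water, made from DMSO stock solutions at 10'000 ppm, were sprayed onto maize sprouts resting on an agar layer in 24-well microtiter plates. Once the treated sprouts had dried, each well was infested with 6 to 10 second-instar (L2) Diabrotica balteata corn rootworm larvae, and mortality was then scored as percent.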

The subject of test [4] is Spodoptera littoralis (Egyptian cotton leaf worm). The test is described as follows: Spodoptera littoralis cotton leaf disc spray test, L1 larvae. The settings on record: foliar, 72 h. Summed up: (§2)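 Leaf discs on agar sprayed with aqueous dilutions of 10'000 ppm DMSO stocks, then infested after drying: Myzus persicae (sunflower, 200 ppm, mixed ages), mortality at 6 DAT; Thrips tabaci (sunflower, mixed ages), mortality at 6 days; Tetranychus urticae (bean, mixed ages), mobile-stage mortality at 8 days; Spodoptera littoralis (cotton), five L1 larvae per disc.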

The subject of test [5] is Myzus persicae (Green peach aphid). The test is described as follows: Myzus persicae sucrose solution / Parafilm feeding test. The settings on record: 120 h, read-out: mortality of Myzus persicae.
Excerpt: as §1

Test [6] relates to Euschistus heros (Neotropical Brown Stink Bug). The test is described as follows: Euschistus heros soybean plant spray test, N2 nymphs. The following applies: 120 h, read-out: mortality of Euschistus heros.
Excerpt: as §1

In test [7] the test system is Plutella xylostella (Diamond back moth). Description: Plutella xylostella artificial diet test, L2 larvae. The following applies: 120 h, application rate of 200 ppm, mortality and growth inhibition 5 days after infestation. Summed up: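 Artificial diet in 24-well microtiter plates was treated by pipetting with aqueous test solutions made from 10'000 ppm DMSO stock solutions. Once dry, each well received 10 to 15 second-instar (L2) Plutella xylostella larvae. Mortality and growth inhibition were scored against untreated samples 5 days after infestation.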

For test [8], the system named is Thrips tabaci (Onion thrips). Description: Thrips tabaci sunflower leaf disc spray test. The following applies: foliar, 144 h, application rate of 200 ppm, mortality 6 days after infestation, mixed ages. Summed up:
as §2

Test [9] concerns Tetranychus urticae (Two-spotted spider mite). The test is described as follows: Tetranychus urticae bean leaf disc spray test. The settings on record: foliar, 192 h, application rate of 200 ppm, mortality on mixed population (mobile stages) 8 days after infestation. In a few lines: as §2
Test [10] has as its system Diabrotica balteata (Corn root worm). Description: Biological comparison a): insecticidal activity against Diabrotica balteata, maize sprouts. The following applies: 96 h, 4 days after infestation.
Excerpt: as §1

Setting [11] is: application rate of 200 ppm, leaf disc spray, 6 DAT.
[12] abbreviates: application rate of 200 ppm, 4 days after infestation, L2 larvae, read-out: mortality.
Where [13] appears, read: application rate of 200 ppm, 3 days after infestation, L1 larvae, read-out: mortality.
The mark [14] stands for this setting: Application rate: 12.5ppm, sucrose solution, 5 days after infestation.
The mark [15] stands for this setting: application rate of 12.5 ppm, 5 days after infestation, N2 nymphs.

In test [1], `Cn1nc(C(F)(F)C(F)(F)F)c(C(F)(F)F)c1-n1cc(-c2ccc(Cl)c(C(=O)NC3(C#N)CC3)c2)cn1` [B, reference compound] showed a mortality at 0.781 ppm of 0%, a mortality at 3.12 ppm of 25%, a mortality at 12.5 ppm of 90% and a mortality at 50 ppm of 100%. In test [1], this compound yielded a mortality at 200 ppm of 100%.
On to `Cn1nc(C(F)(F)C(F)(F)F)c(C(F)(F)F)c1-c1cc(-c2ccc(Cl)c(C(=O)NC3CC3F)c2)on1` (stereo not shown) [Compound 81, 2-chloro-N-(2-fluorocyclopropyl)-5-[3-[2-methyl-5-(1,1,2,2,2-pentafluoroethyl)-4-(trifluoromethyl)pyrazol-3-yl]isoxazol-5-yl]benzamide], for which the mortality at 200 ppm is at least 50% in test [2] (setting [11]), at least 80% in [3] (setting [12]) and at least 80% in [4] (setting [13]). Further, the mortality at 12.5 ppm in test [5] (setting [14]) and in test [6] (setting [15]) was at least 80% in each case. The pest or weed control at 200 ppm in test [7], in test [8] and in test [9] was at least 80% in each case.
As to `Cn1nc(C(F)(F)C(F)(F)F)c(C(F)(F)F)c1-c1cc(-c2ccc(Cl)c(C(=O)NC3CC3)c2)sn1` [Compound 43, 2-chloro-N-cyclopropyl-5-[3-[2-methyl-5-(1,1,2,2,2-pentafluoroethyl)-4-(trifluoromethyl)pyrazol-3-yl]isothiazol-5-yl]benzamide], the figures for the mortality at 200 ppm in [2] (setting [11]), in [3] (setting [12]) and in [4] (setting [13]) were at least 50%, at least 80% and at least 80%, respectively. Moreover, the mortality at 12.5 ppm in test [5] (setting [14]) and in test [6] (setting [15]) was at least 80% in each case. For the same compound, the pest or weed control at 200 ppm in test [7], in test [8] and in test [9] was at least 80% each time.
Take `Cn1nc(C(F)(F)C(F)(F)F)c(C(F)(F)F)c1-c1cc(-c2ccc(Cl)c(C(=O)NC3(C#N)CC3)c2)on1` [Compound 4, 2-chloro-N-(1-cyanocyclopropyl)-5-[3-[2-methyl-5-(1,1,2,2,2-pentafluoroethyl)-4-(trifluoromethyl)pyrazol-3-yl]isoxazol-5-yl]benzamide]: the mortality at 200 ppm in test [2] (setting [11]) is at least 50%; in test [3] (setting [12]) it was at least 80%; in test [4] (setting [13]) it was at least 80%; in test [1] (Concentration 200 ppm, 6 days after infestation, read-out: Mortality (%)), 100%. The mortality at 12.5 ppm in test [5] (setting [14]) was at least 80%; in test [6] (setting [15]) it was at least 80%; in test [10] (Concentration 12.5 ppm), 100%; in test [1] (Concentration 12.5 ppm, 6 days after infestation, read-out: Mortality (%)), 80%. For the same compound, the mortality at 0.195 ppm in [10] (Concentration 0.195 ppm) is 100%. In addition, the mortality at 0.781 ppm is 100% in test [10] (Concentration 0.781 ppm) and 50% in [1] (Concentration 0.781 ppm, 6 days after infestation, read-out: Mortality (%)). For the same compound, the mortality at 3.12 ppm stood at 100% in [10] (Concentration 3.12 ppm) and 65% in test [1] (Concentration 3.12 ppm, 6 days after infestation, read-out: Mortality (%)). Besides, the mortality at 50 ppm in [10] (Concentration 50 ppm) was 100%; in test [1] (Concentration 50 ppm, 6 days after infestation, read-out: Mortality (%)), 100%. In addition, the pest or weed control at 200 ppm in test [7], in test [8] and in [9] was at least 80% in each case.
On to `Cn1nc(C(F)(F)C(F)(F)F)c(C(F)(F)F)c1-c1cc(-c2ccc(Cl)c(C(=O)NC3(C#N)CC3)c2)no1` [Compound 3, 2-chloro-N-(1-cyanocyclopropyl)-5-[5-[2-methyl-5-(1,1,2,2,2-pentafluoroethyl)-4-(trifluoromethyl)pyrazol-3-yl]isoxazol-3-yl]benzamide], for which the mortality at 200 ppm in test [2] was at least 50%; in test [3], at least 80%; in [4] it was at least 80%. The figures for the mortality at 12.5 ppm in test [5] and in test [6] were at least 50% and at least 80%, respectively. The pest or weed control at 200 ppm in [7], in test [8] and in test [9] was at least 80% in each case.
With `Cn1nc(C(F)(F)C(F)(F)F)c(C(F)(F)F)c1-c1cc(-c2ccc(Cl)c(C(=O)NC3(C(N)=S)CC3)c2)on1` [Compound 76, N-(1-carbamothioylcyclopropyl)-2-chloro-5-[3-[2-methyl-5-(1,1,2,2,2-pentafluoroethyl)-4-(trifluoromethyl)pyrazol-3-yl]isoxazol-5-yl]benzamide], the mortality at 200 ppm in test [2] (setting [11]) was at least 50%; in test [3] (setting [12]) it was at least 80%; in test [4] (setting [13]), at least 80%. Also, the mortality at 12.5 ppm in [5] (setting [14]) and in test [6] (setting [15]) was at least 80% each time. Also, the pest or weed control at 200 ppm in [7], in test [8] and in test [9] was at least 80% each time.

A word on the mortality: it is the percentage killed. For orientation: pest or weed control means how far the test organism was held down. The low end stands for a weak effect, the high end for a strong effect.
